Legend:
[1] = tested on: model of a urination disorder associated with streptozocin-induced diabetes; assay: Test Example 6: urination disorder model associated with streptozocin-induced diabetes, compound A versus dutasteride; type: in vivo, rat
Description: As described below, a model of a urination disorder associated with streptozocin-induced diabetes was prepared as a urination disorder model in accordance with Test Example 4 to evaluate the effects of the compound A and the compound C on a urination disorder. This model has no benign prostatic hyperplasia and is a model of a urination disorder associated with neuropathy and smooth muscle contraction disorder.
The body weights of Rats (male, Crl:CD(SD), 5-week-old; Charles River Laboratories Japan, Inc.) were measured. On the basis of the body weight, the rats were grouped or divided into two (2) groups. The day after the rats were grouped, a fist group received intraperitoneal administration of a citrate buffer (pH 4.5) (10 mL/kg) having a concentration of 0.1 mmol/L, and a second group received intraperitoneal administration of streptozocin (STZ; Sigma-Aldrich) (50 mg/kg). Streptozocin (STZ) was administered in the form of a solution of streptozocin having a concentration of 5 mg/mL in the citrate buffer.
About one (1) week after streptozocin (STZ) was administered, the body weight and the fasting blood glucose were measured. In the streptozocin (STZ) administration group (the second group), individuals having a fasting blood glucose level of not less than 300 mg/dL were used as animals with induced diabetes. These animals with induced diabetes are a model having no abnormality of the prostate (having no benign prostatic hyperplasia). On the basis of the body weight and the fasting blood glucose level, the animals (models) with induced diabetes were grouped or divided into three (3) groups by randomized, multivariable block allocation.
To the three model groups with induced diabetes, a 0.5 v/v % Polysorbate 80 solution (0.5% P) (10 mL/kg), the compound A (3 mg/kg), and the compound C (dutasteride) (0.3 mg/kg) were orally administered, respectively, wherein the administration schedule in all groups was a frequency of once a day, only on weekdays, over four (4) weeks. Moreover, to the above-mentioned first group, a 0.5 v/v % Polysorbate 80 solution (0.5% P) (10 mL/kg) was orally administered in the same administration schedule (normal group). On the last day of administration, a cannula was inserted into and secured to the dome of the bladder under isoflurane anesthesia, and cystometry (Cystometogram, CMG) was conducted in the order of under awake condition and under urethane anesthesia to measure the intravesical pressure, the voided volume, and the residual urine volume. After the completion of the measurement, the blood was collected under deep isoflurane anesthesia, and then the prostate (ventral prostate, dorsolateral prostate) was extracted and each was weighed. Moreover, the blood glucose level in the collected blood was measured.
The test substances and the dosage in the test system (rats having the urination disorder associated with diabetes) are as follows. • Normal group: citrate buffer 10 mL/kg (intraperitoneal administration), 0.5% P 10 mL/kg (oral administration) (n=10) • Solvent group (control group): STZ 50 mg/kg (intraperitoneal administration), 0.5% P 10 mL/kg (oral administration) (n=10) • Group A3: STZ 50 mg/kg (intraperitoneal administration), Compound A 3 mg/kg (oral administration) (n=10) • Group C0.3: STZ 50 mg/kg (intraperitoneal administration), Compound C (dutasteride) 0.3 mg/kg (oral administration) (n=10)
Urination parameter: In the same manner as in Test Example 4, the residual urine volume (mL) and the urination efficiency % were determined as urination parameters in each urination, and the average value of two measurements was taken as a measured value of each individual.
Prostate weight: In the same manner as in Test Example 4, the weight of the prostate (ventral prostate, dorsolateral prostate, and whole) was converted to a tissue weight per 100 g of the body weight. […]

[2] = tested on: lower urinary tract obstruction model of rats; assay: Test Example 1: urination function in female rat lower urinary tract obstruction model (cystometry, tissue wet weights, survival); type: in vivo; conditions: 2 weeks
Text: A lower urinary tract obstruction model of rats was used as a test system. A test substance was orally administered to the lower urinary tract obstruction model repeatedly over two (2) weeks to examine the action on the urination function in the lower urinary tract obstruction model.
More specifically, the rats (female, Crl:CD(SD), 8-week-old; Charles River Laboratories Japan, Inc.) were operated to form lower urinary tract obstruction and repeatedly received oral administration of the test substance at a frequency of once a day over two (2) weeks. After the completion of the administration, each rat was subjected to bladder catheterization under anesthesia, cystometry under no anesthesia, then cystometry under urethane anesthesia, and euthanasia under deep anesthesia, and the tissues (bladder, kidney) of the rat were extracted or surgically removed. As a normal group, the rats without operation for forming lower urinary tract obstruction were used.
The test system, the test substances, and the dosage are as follows. • Normal group: 0.5 v/v. Polysorbate 80 solution, 10 mL/kg (n=6) • Solvent group (control group): 0.5 v/v % Polysorbate 80 solution, 10 mL/kg (n=15) • Group A: Compound A, 10 mg/kg (n=15) • Group B3: Compound B, 3 mg/kg (n=7) • Group B10: Compound B, 10 mg/kg (n=7)
The residual urine volume, the urination efficiency, and the bladder capacity were measured as follows.
After urination, the residual urine was aspirated from the outlet end of the catheter placed in the bladder to measure the volume (mL) of the residual urine.
After urination, the weight of the voided urine was measured to determine the voided volume (g=mL), and then the urination efficiency was calculated by the following equation: Urination efficiency (%)=[(Voided volume (mL))/(Voided volume (mL)+Residual urine volume (mL))]×100 [Bladder Capacity]
The bladder capacity was calculated from the voided volume and the residual urine volume by the following equation: Bladder capacity(mL)=Voided volume (mL)+Residual urine volume (mL)
Moreover, the wet weight of the extracted bladder and that of the extracted kidney were measured.

[3] = tested on: uterine weight associated with rat deciduoma formation; assay: Test Example 5: antiprogesterone activity, uterine weight associated with rat deciduoma formation in ovariectomized rats; type: in vivo; conditions: 192 h, Group D: 3 mg/kg oral once a day, 8 days, ovariectomized female rats, compared with solvent group, FIG. 18, read-out: inhibition rate of uterine weight increase (antiprogesterone action)
Description: For the compound A and the compound D (mifepristone), the antiprogesterone activity was measured. Specifically, a sex hormone and a test substance were repeatedly administered to ovariectomized rats as a test system to examine the antiprogesterone action (antiprogesterone activity) based on, as an index, the fluctuation of the uterine weight (the inhibitory action relative to the increase of the weight) associated with rat deciduoma formation.
More specifically, rats (female, Crl:CD(SD), 5-week-old: Charles River Laboratories Japan, Inc.) were subjected to ovariectomy, and from one (1) week after the ovariectomy, a high dose estrone or 5 μg/one animal was hypodermically administered to the rats once a day for three (3) days. From the day after one day rest period, the rats received, once a day over eight (8) days, hypodermic administration of a low dose estrone (1 μg/one animal), intramuscular administration of progesterone (6 mg/kg), and oral administration of a test substance. In the middle of the administration, on Day 4 of the start of administration, the rats were subjected to a stimulation treatment of decidualization reaction to the right uterus. The day after the final administration, the uterine weight (right uterine body) was measured (n=6). Group E was subjected to ovariectomy and a stimulation treatment of decidualization reaction but was not subjected to a hormone treatment.
The test substances and the dosage in the test system (ovariectomized rats) are as follows. • Group E: rats with ovariectomy without hormone treatment • 0.5 v/v % Polysorbate 80 solution, 10 mL/kg (n=6) • Solvent group (control group): 0.5 v/v % Polysorbate 80 solution, 10 mL/kg (n=6) • Group A3: Compound A, 3 mg/kg (n=6) • Group A10: Compound A, 10 mg/kg (n=6) • Group A30: Compound A, 30 mg/kg (n=6) • Group D: Compound D (mifepristone), 3 mg/kg (n=6)

[4] = Group C0.3: 0.3 mg/kg oral, 4 weeks, relative to solvent group

SMILES: C[C@]12C=CC(=O)N[C@@H]1CC[C@@H]1[C@@H]2CC[C@]2(C)[C@@H](C(=O)Nc3cc(C(F)(F)F)ccc3C(F)(F)F)CC[C@@H]12 [Compound C, dutasteride, reference compound]
- therapeutic effect on diabetes (blood glucose level) ([1]; Group C0.3: 0.3 mg/kg oral, 4 weeks): no therapeutic effect on diabetes
- Dorsolateral prostate (atrophy rate) [1, 4]: (37.5%)
- Ventral prostate (atrophy rate) [1, 4]: (42.7%)
- Whole prostate (atrophy rate) [1, 4]: (40.7%)
- bladder contraction force on urination by nomogram analysis (distance from the origin) ([1]; Group C0.3: 0.3 mg/kg, FIG. 21): almost the same position as the solvent group
- residual urine volume ([1]; Group C0.3: 0.3 mg/kg, cystometry under awake condition, vs solvent group, FIG. 19): did not statistically affect
- urination efficiency ([1]; Group C0.3: 0.3 mg/kg, cystometry under awake condition, vs solvent group, FIG. 20): did not statistically affect

SMILES: CC(=O)O[C@]1(C(C)=O)CC[C@H]2[C@@H]3C=C(Cl)C4=CC(=O)OC[C@]4(C)[C@H]3CC[C@@]21C [Compound B, 17α-acetoxy-6-chloro-2-oxa-4,6-pregnadiene-3,20-dione, reference compound]
- residual urine volume ([2]; Groups B3 and B10: 3 mg/kg and 10 mg/kg oral once a day, vs control group, FIG. 1): significantly increased
- urination efficiency ([2]; Groups B3 and B10: 3 mg/kg and 10 mg/kg oral once a day, vs control group, FIG. 2): reduced
- bladder capacity ([2]; Groups B3 and B10: 3 mg/kg and 10 mg/kg oral once a day, vs control group, FIG. 3): significantly increased
- bladder wet weight ([2]; Groups B: 3 mg/kg and 10 mg/kg oral once a day, FIG. 4): in the direction of increasing
- kidney wet weight ([2]; Groups B: 3 mg/kg and 10 mg/kg oral once a day, FIG. 5): in the direction of increasing
- survival rate ([2]; Groups B: 3 mg/kg and 10 mg/kg oral once a day, FIG. 6): decreased

SMILES: CC#C[C@]1(O)CC[C@H]2[C@@H]3CCC4=CC(=O)CCC4=C3[C@@H](c3ccc(N(C)C)cc3)C[C@@]21C [Compound D, mifepristone, reference compound]
- inhibition at 3 mg/kg [3]: 89.5%

Source: patent US12458650B2, “Urination disorder-improving agent” (ASKA Pharmaceutical Co., Ltd., priority 2019, dated 2025)
